Test results published in patent publication US20090182020A1, “SUBSTITUTED BIS(HETERO)AROMATIC N--ETHYLPROPIOLAMIDES AND USE THEREOF FOR PRODUCTION OF MEDICAMENTS” (GRUNENTHAL GMBH, priority 2005, published 2009).

Each molecule was assayed on rats (assay: Formaline test in rats (phase 2, pain rate)). Settings: i.v. administration at 21.5 mg/kg, formaline test phase 2.
Format: in vivo, rat
Method: III. Formaline Test in Rats:
The formaline test (Dubuisson, D. and Dennis, S. G., 1977, Pain, 4, 161-174) represents a model for acute and chronic pain. A biphasic nociceptive reaction, which is recorded by observation of three clearly differentiable behavioural patterns, is induced by a single formaline injection into the dorsal side of a rear paw in freely mobile test animals. The reaction has two phases: Phase 1=Immediate reaction (duration up to 10 min; paw shaking, licking), Phase 2=Late reaction (after a rest phase; likewise, paw shaking, licking; duration up to 60 min). The 1st phase reflects a direct stimulation of the peripheral nocisensors with high spinal nociceptive input or glutamate release (acute pain phase); the 2nd phase reflects a spinal and peripheral hypersensitisation (chronic pain phase). In the investigations presented here, the chronic pain component (phase 2) was evaluated.
Formaline with a volume of 50 μl and a concentration of 5% is administered subcutaneously into the dorsal side of the right rear paw of each animal. […] The calculation of PR is performed on the basis of a numerical weighting (=in each case factor 1, 2, 3) of the observed forms of behaviour (corresponding behavioural score 1, 2, 3) and is calculated with the following formula: […]

SMILES	inhibition of the pain reaction
CN(CCc1ccccc1)C(=O)C#Cc1cccc(Cl)c1 [Example 1, 3-(3-chlorophenyl)-N-methyl-N-phenethylpropiolamide]	60%

The molecules below were run against T1, mGluR5 receptor (pig) (Sus scrofa, UniProt I3LUI7) (assay: [3H]-MPEP bond in the mGluR5 receptor bond assay (pig brain homogenate)). Settings: 5 nM [3H]-MPEP; pig brain homogenate.
T1 construct: 450 μg protein from brain homogenate is incubated with 5 nM ^3[H]-MPEP; from tissue; host or cells: pig brain halves without medulla, cerebellum and pons
T1 sequence (I3LUI7 19-1212): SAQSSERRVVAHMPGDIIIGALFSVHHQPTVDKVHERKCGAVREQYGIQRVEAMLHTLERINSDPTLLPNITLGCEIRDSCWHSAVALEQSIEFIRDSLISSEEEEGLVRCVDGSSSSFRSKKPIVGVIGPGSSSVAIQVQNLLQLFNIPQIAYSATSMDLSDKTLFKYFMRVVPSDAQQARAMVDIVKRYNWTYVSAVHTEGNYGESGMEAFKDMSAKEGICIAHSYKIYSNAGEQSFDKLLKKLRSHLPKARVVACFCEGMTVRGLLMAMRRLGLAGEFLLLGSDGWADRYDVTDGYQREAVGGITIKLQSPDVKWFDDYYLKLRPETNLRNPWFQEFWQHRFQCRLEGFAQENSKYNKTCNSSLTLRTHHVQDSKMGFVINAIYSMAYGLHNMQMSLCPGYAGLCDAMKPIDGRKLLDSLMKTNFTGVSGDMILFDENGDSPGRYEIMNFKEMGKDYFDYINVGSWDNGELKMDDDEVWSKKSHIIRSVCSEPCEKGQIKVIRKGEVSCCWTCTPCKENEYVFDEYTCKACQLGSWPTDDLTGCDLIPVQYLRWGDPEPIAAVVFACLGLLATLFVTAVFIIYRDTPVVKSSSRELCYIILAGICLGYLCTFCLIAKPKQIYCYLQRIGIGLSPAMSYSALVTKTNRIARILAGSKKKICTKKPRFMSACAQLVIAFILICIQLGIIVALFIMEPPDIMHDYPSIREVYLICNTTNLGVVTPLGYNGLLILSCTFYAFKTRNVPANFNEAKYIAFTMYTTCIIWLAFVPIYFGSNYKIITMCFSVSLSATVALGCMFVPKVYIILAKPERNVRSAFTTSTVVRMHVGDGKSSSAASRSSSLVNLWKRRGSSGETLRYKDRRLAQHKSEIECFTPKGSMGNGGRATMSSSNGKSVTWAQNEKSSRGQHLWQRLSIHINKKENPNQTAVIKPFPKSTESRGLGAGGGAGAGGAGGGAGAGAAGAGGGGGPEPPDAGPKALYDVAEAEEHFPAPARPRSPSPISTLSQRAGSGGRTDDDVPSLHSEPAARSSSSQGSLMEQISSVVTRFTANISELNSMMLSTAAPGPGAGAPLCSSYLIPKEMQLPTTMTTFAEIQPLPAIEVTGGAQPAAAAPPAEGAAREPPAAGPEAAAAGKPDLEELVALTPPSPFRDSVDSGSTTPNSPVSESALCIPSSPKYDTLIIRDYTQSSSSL
Format: binding
Method: I. Method for Determining the Inhibition of the [^3H]-MPEP Bond in the mGluR5 Receptor Bond Assay
Pig brain homogenate is produced by homogenisation (Polytron PT 3000, Kinematica AG, 10,000 rpm for 90 seconds) of pig brain halves without medulla, cerebellum and pons in buffer pH 8.0 (30 mM Hepes, Sigma, order no. H3375+1 tablet complete to 100 ml, Roche Diagnostics, order no. 1836145) in the ratio 1:20 (brain weight/volume) and differential centrifugation at 900×g and 40,000×g. In each case, 450 μg protein from brain homogenate is incubated with 5 nM ^3[H]-MPEP (Tocris, order no. […]
Thereafter, the batches are filtered with the help of a Brandel Cell Harvester (Brandel, TYP Robotic 9600) on unifilter plates with glass fibre filter mats (Perkin Elmer, order no. 6005177) and subsequently washed with buffer (as above) 3 times with in each case 250 μl per sample. The filter plates are subsequently dried for 60 min at 55° C. 30 μL Ultima Gold™ scintillator (Packard BioScience, order no. 6013159) is subsequently added per well and the samples are measured after 3 hours on the β-counter (Mikrobeta, Perkin Elmer). The unspecific bond is determined by addition of 10 μM MPEP (Tocris, order no. 1212).

SMILES	IC50
CN(CCc1ccccc1)C(=O)C#Cc1cccc(Cl)c1 [Example 1, 3-(3-chlorophenyl)-N-methyl-N-phenethylpropiolamide]	12 nM
CN(CCc1ccncc1)C(=O)C#Cc1cccc(Cl)c1 [Example 244, 3-(3-chlorophenyl)-N-methyl-N-(2-(pyridine-4-yl)ethyl)propiolamide]	23 nM
CN(CCc1cccs1)C(=O)C#Cc1cccc(Cl)c1 [Example 245, 3-(3-chlorophenyl)-N-methyl-N-(2-(thiophene-2-yl)ethyl)propiolamide]	11 nM
CC(Cc1cccnc1)NC(=O)C#Cc1cccc(Cl)c1 (stereo not shown) [Example 246, 3-(3-chlorophenyl)-N-(1-(pyridine-3-yl)propane-2-yl)propiolamide]	10 nM

Continued, values first:

IC50	SMILES
140 nM	CC(Cc1cccnc1)N(C)C(=O)C#Cc1cccc(Cl)c1 (stereo not shown) [Example 247, 3-(3-chlorophenyl)-N-methyl-N-(1-(pyridine-3-yl)propane-2-yl)propiolamide]
260 nM	Cc1ncccc1CCNC(=O)C#Cc1cccc(Cl)c1 [Example 248, 3-(3-chlorophenyl)-N-(2-(2-methylpyridine-3-yl)ethyl)propiolamide]
120 nM	Cc1ncccc1CCN(C)C(=O)C#Cc1cccc(Cl)c1 [Example 249, 3-(3-chlorophenyl)-N-methyl-N-(2-(2-methylpyridine-3-yl)ethyl)propiolamide]
33 nM	O=C(C#Cc1cccc(Cl)c1)NCCc1ccccc1C(F)(F)F [Example 250, 3-(3-chlorophenyl)-N-(2-(trifluoromethyl)phenethyl)propiolamide]
28 nM	CN(CCc1ccccc1C(F)(F)F)C(=O)C#Cc1cccc(Cl)c1 [Example 251, 3-(3-chlorophenyl)-N-methyl-N-(2-(trifluormethyl)phenethyl)propiolamide]
